Values of other authors in US9700048B2, “Agroformulation comprising copolymer of vinyllactam, N-alkyl acrylamide, and alkyl (meth)acrylate” (BASF SE, priority 2012, dated 2017).
≈ marks a conversion by molar mass, not a printed value.

Conditions: at 20° C.

Which solubility in water does the source give for `Cn1cc(C(=O)Nc2ccccc2-c2cc(F)c(F)c(F)c2)c(C(F)F)n1` [fluxapyroxad] here?
Its solubility in water is 3.88 µg/mL (≈ 10.2 µM).
